# Earlier results as cited in US20200299317A1 (Tokuyama Corporation, priority 2018, published 2020).
# Conditions: ferric citrate obtainable per Patent Literature 2
substance,measurement,value
ferric citrate,BET specific surface area,20 to 45 m^2/g
